Test results taken from the Kinase Knowledgebase extract (Sharma et al. 2016).

The compounds below were run against CDK2 (human) (UniProt P24941) (assay: Enzyme Assay).

Row | Compound | Ki [nM]
1 | COc1cc(Cl)ccc1Nc1nccc(-c2sc(=O)n(C)c2C)n1 | 2230
2 | CCOc1ccccc1Nc1nccc(-c2sc(=O)n(C)c2C)n1 | > 10000
3 | Cc1c(-c2ccnc(Nc3ccccc3C(F)(F)F)n2)sc(=O)n1C | > 10000
4 | CC(=O)c1cccc(Nc2nccc(-c3sc(=O)n(C)c3C)n2)c1 | 20
5 | CCc1ccccc1Nc1nccc(-c2sc(=O)n(C)c2C)n1 | 1230
6 | COc1ccc(Nc2nccc(-c3sc(=O)n(C)c3C)n2)c(OC)c1 | > 10000
7 | Cc1cc(F)ccc1Nc1nccc(-c2sc(=O)n(C)c2C)n1 | 490
8 | Cc1c(-c2ccnc(Nc3ccccc3OC(F)F)n2)sc(=O)n1C | 5360
9 | Cc1c(-c2ccnc(Nc3ccccc3)n2)sc(=O)n1C | 40
10 | Cc1c(Nc2nccc(-c3sc(=O)n(C)c3C)n2)cccc1NS(C)(=O)=O | 190
11 | COc1cccc(Nc2nccc(-c3sc(=O)n(C)c3C)n2)c1 | 70
12 | Cc1c(-c2ccnc(Nc3cccc(NS(C)(=O)=O)c3)n2)sc(=O)n1C | 30
13 | Cc1ccc(Nc2nccc(-c3sc(=O)n(C)c3C)n2)cc1 | 40
14 | COc1ccc(Nc2nccc(-c3sc(=O)n(C)c3C)n2)cc1 | 700
15 | Cc1ccccc1Nc1nccc(-c2sc(=O)n(C)c2C)n1 | 460
16 | CCc1ccc(Nc2nccc(-c3sc(=O)n(C)c3C)n2)cc1 | 50
17 | COc1ccccc1Nc1nccc(-c2sc(=O)n(C)c2C)n1 | 2470
18 | Cc1cccc(Nc2nccc(-c3sc(=O)n(C)c3C)n2)c1 | 20
